Data from patent publication US20230357179A1, “RAF KINASE INHIBITORS AND METHODS OF USE THEREOF” (Deciphera Pharmaceuticals, LLC, priority 2021, published 2023).

Legend:
B-Raf kinase = biological target: T1, B-Raf kinase (Homo sapiens, UniProt P15056); test: Biochemical assay for B-Raf.1 (coupled pyruvate kinase/lactate dehydrogenase); conditions: read-out: BRAF.1 IC50
T1 construct: GST (N); purchased Sigma
Method: Biochemical Assay for B-Raf.1
(§1) Activity of B-Raf kinase (SEQ. ID NO: 2) was determined spectroscopically using a coupled pyruvate kinase/lactate dehydrogenase assay that continuously monitors the ATP hydrolysis-dependent oxidation of NADH (e.g., Schindler et al., Science, 2000, 289, 1938-1942). Assays were conducted in 384-well plates (100 μL final volume) using 0.13 nM B-Raf (Sigma), 1.5 units pyruvate kinase, 2.1 units lactate dehydrogenase, 1 mM phosphoenol pyruvate, 0.28 mM NADH, 30.1 nM MEK (SignalChem), and 1 mM ATP in assay buffer (100 mM Tris, pH 7.5, 15 mM MgCl2, 0.5 mM DTT, 0.1% octyl-glucoside, 0.002% (w/v) BSA, and 0.002% Triton X-100). Inhibition of B-Raf was measured by adding serial diluted test compound (final assay concentration of 1% DMSO). A decrease in absorption at 340 nm was monitored continuously for 6 h at 30° C. on a multi-mode microplate reader (BioTek). The reaction rate was calculated using the 4 to 5 h time frame. The reaction rate at each concentration of compound was converted to percent inhibition using controls (i.e., reaction with no test compound and reaction with a known inhibitor) and IC50 values were calculated by fitting a four-parameter sigmoidal curve to the data using Prism (GraphPad software).

B-Raf (V600E) kinase = biological target: T2, B-Raf (V600E) kinase (Homo sapiens, UniProt P15056, V600E); test: Biochemical assay for B-Raf (V600E).1 (coupled pyruvate kinase/lactate dehydrogenase); conditions: read-out: BRAF V600E.1 IC50
T2 construct: B-Raf (V600E) residues 416-766 with a; GST (N); purchased SignalChem
Method: Biochemical Assay for B-Raf (V600E).1
Activity of B-Raf (V600E) (SEQ. ID NO: 4) kinase was determined spectroscopically using a coupled pyruvate kinase/lactate dehydrogenase assay that continuously monitors the ATP hydrolysis-dependent oxidation of NADH (e.g., Schindler et al., Science, 2000, 289, 1938-1942). Assays were conducted in 384-well plates (100 μL final volume) using 0.03 nM B-Raf (SignalChem), 1.5 units pyruvate kinase, 2.1 units lactate dehydrogenase, 1 mM phosphoenol pyruvate, 0.28 mM NADH, 30.1 nM MEK (SignalChem), and 1 mM ATP in assay buffer (100 mM Tris, pH 7.5, 15 mM MgCl2, 0.5 mM DTT, 0.1% octyl-glucoside, 0.002% (w/v) BSA, and 0.002% Triton X-100). Inhibition of B-Raf (V600E) was measured by adding serial diluted test compound (final assay concentration of 1% DMSO). A decrease in absorption at 340 nm was monitored continuously for 6 h at 30° C. on a multi-mode microplate reader (BioTek). The reaction rate was calculated using the 3 to 4 h time frame. The reaction rate at each concentration of compound was converted to percent inhibition using controls (i.e., reaction with no test compound and reaction with a known inhibitor) and IC50 values were calculated by fitting a four-parameter sigmoidal curve to the data using Prism (GraphPad software).

A-Raf kinase = biological target: T3, A-Raf kinase (Homo sapiens, UniProt P10398, Y301D/Y302D); test: Biochemical assay for A-Raf.1 (coupled pyruvate kinase/lactate dehydrogenase); conditions: read-out: ARAF.1 IC50
T3 construct: purchased Sigma
Method: Biochemical assay for A-Raf.1
as §1, with “A-Raf” for “B-Raf”, “NO. 1)” for “NO: 2)”, “5.55” for “0.13”

C-Raf kinase = biological target: T4, C-Raf kinase (Homo sapiens, UniProt P04049, Y340D/Y341D); test: Biochemical assay for C-Raf.1 (coupled pyruvate kinase/lactate dehydrogenase); conditions: read-out: CRAF.1 IC50
T4 construct: Y340D,; GST (N); purchased Sigma
Method: Biochemical Assay for C-Raf.1
as §1, with “of C-Raf” for “of B-Raf”, “NO: 3)” for “NO: 2)”, “using 0.43” for “using 0.13”, “nM C-Raf” for “nM B-Raf”

A375 cells = test: A375 cell proliferation assay (1), resazurin, 96-well; assay type: cell-based; conditions: Homo sapiens, A-375, inhibition of cell proliferation
Method: A375 Cell Proliferation Assay (1)
A375 cells (catalog (#CRL-1619) are obtained from the American Type Culture Collect (ATTC, Manassas, VA). Briefly, cells were grown in DMEM High Glucose supplemented with 10% characterized fetal bovine serum (Invitrogen, Carlsbad, CA) and 1% Penicillin/Streptomycin/L-Glutamine at 37° C., 5% CO2, and 95% humidity. Cells are expanded until reaching 70-95% confluency at which point they are sub-cultured or harvested for assay use. A serial dilution of test compound is dispensed into a 96-well black clear bottom plate in triplicate. Two thousand five hundred cells are added per well in 200 μL complete growth medium in the 96-well plate. Plates are incubated for 67-72 hours at 37° C., 5% CO2, and 95% humidity. At the end of the incubation, 40 μL of a 440 μM solution of resazurin (Sigma, St. Louis, MO) in PBS is added to each well of the plate and plates are incubated for an additional 5-6 hours at 37° C., 5% CO2, and 95% humidity. Plates are read on a Synergy2 or equivalent reader (Biotek, Winooski VT) using an excitation of 540 nm and an emission of 600 nm. Data is analyzed using Prism software (GraphPad, San Diego, CA) to calculate IC50 values.

T3 sequence (P10398 with tags, fused parts or gaps Y301D/Y302D): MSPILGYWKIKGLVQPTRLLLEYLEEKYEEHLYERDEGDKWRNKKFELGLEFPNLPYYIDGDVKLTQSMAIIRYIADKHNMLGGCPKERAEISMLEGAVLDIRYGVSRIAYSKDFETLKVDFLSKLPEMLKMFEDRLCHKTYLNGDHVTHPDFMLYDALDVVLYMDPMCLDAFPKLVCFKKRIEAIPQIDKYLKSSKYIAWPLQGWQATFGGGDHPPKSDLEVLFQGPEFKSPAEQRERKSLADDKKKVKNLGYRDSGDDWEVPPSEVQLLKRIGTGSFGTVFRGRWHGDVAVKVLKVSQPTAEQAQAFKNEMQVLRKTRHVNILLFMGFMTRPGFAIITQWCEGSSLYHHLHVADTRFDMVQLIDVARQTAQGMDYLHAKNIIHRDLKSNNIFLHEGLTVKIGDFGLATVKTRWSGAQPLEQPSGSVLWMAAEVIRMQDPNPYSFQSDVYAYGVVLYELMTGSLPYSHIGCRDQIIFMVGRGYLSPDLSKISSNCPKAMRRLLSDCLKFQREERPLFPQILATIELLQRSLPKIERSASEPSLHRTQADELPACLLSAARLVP
T1 sequence (P15056 416-766): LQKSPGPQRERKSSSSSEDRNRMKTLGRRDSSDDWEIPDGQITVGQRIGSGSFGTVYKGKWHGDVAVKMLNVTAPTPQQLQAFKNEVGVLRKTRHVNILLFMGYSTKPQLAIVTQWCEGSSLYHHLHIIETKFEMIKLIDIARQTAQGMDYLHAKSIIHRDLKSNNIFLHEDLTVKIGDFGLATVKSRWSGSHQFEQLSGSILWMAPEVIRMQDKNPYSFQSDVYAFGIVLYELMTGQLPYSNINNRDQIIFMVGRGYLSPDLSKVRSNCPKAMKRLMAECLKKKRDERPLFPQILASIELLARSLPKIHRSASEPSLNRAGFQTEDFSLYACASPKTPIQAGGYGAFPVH
T2 sequence (P15056 416-766 V600E): as the sequence (P15056 416-766) above, with V185E counted along it
T4 sequence (P04049 307-648 Y340D/Y341D): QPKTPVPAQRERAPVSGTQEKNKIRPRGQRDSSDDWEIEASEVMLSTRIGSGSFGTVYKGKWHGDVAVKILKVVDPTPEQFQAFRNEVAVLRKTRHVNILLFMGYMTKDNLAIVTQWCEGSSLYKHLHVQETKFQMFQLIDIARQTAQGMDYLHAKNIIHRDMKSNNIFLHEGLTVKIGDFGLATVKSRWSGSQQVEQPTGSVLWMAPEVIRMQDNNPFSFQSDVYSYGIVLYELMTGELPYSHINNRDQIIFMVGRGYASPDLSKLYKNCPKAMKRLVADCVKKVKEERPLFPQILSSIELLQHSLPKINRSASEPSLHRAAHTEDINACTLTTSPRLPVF

IC50 (B-Raf kinase) [nM]	IC50 (B-Raf (V600E) kinase) [nM]	IC50 (A-Raf kinase) [nM]	IC50 (C-Raf kinase) [nM]	IC50 (A375 cells) [nM]	SMILES
> 1000	100 to 500	> 1000	> 1000	–	Cc1ncc(NC(=O)N2CCOCC2)cc1-c1cccc(-c2cc(NC(=O)C3CC3)ncn2)c1 [Example 74]
> 1000	> 1000	> 1000	> 1000	–	COC(=O)Nc1cc(-c2cnnc(-c3cccc(NC(=O)N4CC[C@@H](OC)C4)c3)c2)ccn1 [Example 199]
> 1000	100 to 500	> 1000	> 1000	–	Cc1cc(F)c(NC(=O)N[C@H]2C[C@H](N(C)C)C2)cc1-c1cc(OCCO)nc(-c2ccnc3[nH]ncc23)c1 [Example 86]
100 to 500	≤ 100	> 1000	100 to 500	–	COC(C)(C)CCNC(=O)Nc1cc(-c2cccc(-c3ccnc(N)c3)c2)c(C)cc1F [Example 70]
500 to 1000	> 1000	> 1000	100 to 500	–	COC(=O)Nc1cc(-c2cc(-c3cc(NC(=O)N4CCC(C)(C)C4)cnc3C)ccn2)ccn1 [Example 198]
> 1000	> 1000	> 1000	> 1000	–	COC(=O)Nc1cc(-c2cnnc(-c3cc(NC(=O)N4CCC(C)(C)C4)cnc3C)c2)ccn1 [Example 191]
> 1000	> 1000	> 1000	> 1000	–	CNC(=O)c1cc(-c2cnnc(-c3cc(NC(=O)N4CC[C@H](OC)C4)cnc3C)c2)ccn1 [Example 189]
> 1000	> 1000	> 1000	> 1000	–	COC(=O)Nc1cc(-c2cnnc(-c3cc(NC(=O)N4CC[C@@H](OC)C4)cnc3C)c2)ccn1 [Example 203]
> 1000	> 1000	> 1000	> 1000	–	COC(=O)Nc1cc(-c2cnnc(-c3cccc(NC(=O)N4CC[C@H](OC)C4)c3)c2)ccn1 [Example 190]
> 1000	> 1000	> 1000	> 1000	–	CNC(=O)c1cc(-c2cnnc(-c3cc(NC(=O)N4CC[C@@H](OC)C4)cnc3C)c2)ccn1 [Example 204]
> 1000	> 1000	> 1000	500 to 1000	–	COC(=O)Nc1cc(-c2cc(-c3cc(NC(=O)N4CCC(C(C)(C)O)C4)cnc3C)ccn2)ccn1 (centres unmarked) [Example 212]
> 1000	> 1000	> 1000	500 to 1000	–	CNC(=O)c1cc(-c2cnnc(-c3cc(NC(=O)N4CCC(CC(F)(F)F)C4)cnc3C)c2)ccn1 (centres unmarked) [Example 192]

Second part, the compound before the results:

SMILES	IC50 (B-Raf kinase) [nM]	IC50 (B-Raf (V600E) kinase) [nM]	IC50 (A-Raf kinase) [nM]	IC50 (C-Raf kinase) [nM]	IC50 (A375 cells) [nM]
Cc1ccc(NC(=O)NC23CC4CC(CC(C4)C2)C3)cc1-c1cc(OCCO)nc(N2CCOCC2)c1 [Example 14]	> 1000	≤ 100	> 1000	100 to 500	–
CC(=O)Nc1cc(-c2cc(-c3cc(NC(=O)NCCC(C)(C)C(F)(F)F)c(F)cc3C)cc(C3CC3)n2)ccn1 [Example 56]	≤ 100	≤ 100	> 1000	≤ 100	500 to 1000
COC(C)(C)CCNC(=O)Nc1cc(-c2cc(OCCO)nc(-c3ccncc3)c2)c(C)cc1F [Example 40]	100 to 500	≤ 100	> 1000	100 to 500	1000 to 10000
COC1(CCNC(=O)Nc2cc(-c3cc(-c4cnn(C)c4)nc(N4CCOCC4)c3)c(C)cc2F)CC1 [Example 35]	100 to 500	≤ 100	> 1000	100 to 500	–
Cc1cc(F)c(NC(=O)Nc2cnn(C(C)(C)C)c2)cc1-c1cc(OCCN(C)C)nc(N2CCOCC2)c1 [Example 29]	500 to 1000	≤ 100	> 1000	100 to 500	1000 to 10000
COC(C)(C)CCNC(=O)Nc1ccc(C)c(-c2cc(-c3cnn(C4CCNCC4)c3)nc(N3CCOCC3)c2)c1 [Example 46]	100 to 500	≤ 100	> 1000	100 to 500	–
CC(=O)Nc1cc(-c2cc(-c3cc(NC(=O)NCCCC(F)(F)F)c(F)cc3C)cc(C3CC3)n2)ccn1 [Example 58]	≤ 100	≤ 100	500 to 1000	≤ 100	–
Cc1ncc(NC(=O)NCCC(C)(C)C)cc1-c1ccnc(N2CCOCC2)c1 [Example 16]	500 to 1000	≤ 100	> 1000	100 to 500	–
Cc1cc(F)c(NC(=O)NCCC2(C(F)(F)F)CC2)cc1-c1cc(C2CCOCC2)nc(N2CCN(C)CC2)c1 [Example 12]	500 to 1000	≤ 100	> 1000	100 to 500	–
Cc1ncc(NC(=O)NCCC(C)(C)C)cc1-c1cc(N2CCOCC2)c(=O)n(C)c1 [Example 8]	> 1000	≤ 100	> 1000	500 to 1000	–
Cc1ncc(NC(=O)NCCC(C)(C)C)cc1-c1cc(N2CCOCC2)c(=O)n(C)n1 [Example 17]	> 1000	≤ 100	> 1000	> 1000	–
